Target: Sphingosine 1-phosphate receptor 4 (Homo sapiens) (UniProt O95977)
Test: potency of S1P4 activators – cell-based, fluorescence, synthesized compounds, late-stage follow-up (AID 463107)
Conditions: S1P4 cell-based agonist assay; call rule not given here

Sphingosine 1-phosphate receptor 4 (Homo sapiens), sequence (O95977 whole entry, looked up): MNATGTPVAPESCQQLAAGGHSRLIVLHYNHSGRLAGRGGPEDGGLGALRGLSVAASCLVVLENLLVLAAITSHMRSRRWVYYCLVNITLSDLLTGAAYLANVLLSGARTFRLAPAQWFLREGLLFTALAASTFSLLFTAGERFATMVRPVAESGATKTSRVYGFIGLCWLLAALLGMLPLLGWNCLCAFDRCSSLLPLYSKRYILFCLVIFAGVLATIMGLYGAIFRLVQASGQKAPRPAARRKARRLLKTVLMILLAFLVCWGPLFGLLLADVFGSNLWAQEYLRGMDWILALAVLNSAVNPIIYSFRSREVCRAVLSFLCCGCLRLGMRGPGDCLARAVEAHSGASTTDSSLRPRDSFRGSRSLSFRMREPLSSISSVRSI

EC50, active:
Cc1ccc(OCCOc2ccc(Cl)cc2Cl)c(Br)n1 0.052 µM
Cc1ccc(OCCOc2c(Cl)cc(Cl)cc2Cl)c([N+](=O)[O-])n1 0.57 µM
Clc1ccc(OCCOc2ccc(Br)nc2Br)c(Cl)c1 0.0463 µM
Cc1ccc(OCCOc2ccc(Cl)cc2Cl)c([N+](=O)[O-])n1 0.162 µM
COc1ccc(OCCOc2ccc(C)nc2[N+](=O)[O-])c(Cl)c1 3.9 µM
Cc1ccc(OCCOc2ccc(C)nc2[N+](=O)[O-])c(C)c1 7.2 µM
FCc1ccc(OCCOc2ccc(Cl)cc2Cl)c(Cl)n1 0.0455 µM

— PubChem BioAssay AID463107 (The Scripps Research Institute Molecular Screening Center, 2010)
